Assay results reported in patent US5654296A, “Condensed heterocyclic compounds, their production and use” (priority 1994, dated 1997).
Counter-ions that a name gives are not always drawn.

Columns and labels:
serotonine (5-HT) uptake = assay: Activity to inhibit serotonine (5-HT) uptake; type: biochemical; settings: rat whole brain; 3H-5-HT 10 nM; 37° C.; pH 7.4; read-out: 5-HT uptake inhibitory activity (IC50 μM)
Experimental: (a) Activity to inhibit serotonine (5-HT) uptake
The experiment was performed in accordance with the method of Hyttel et al. [Psychopharmacology 60, 13, 1978]. The whole brain of a rat was homogenized in 40 volumes of ice-cooled 0.32M sucrose solution containing 10 μM pargyline and, then, centrifuged (600×G) for 10 minutes. The supernatant was centrifuged (2500×G) for 55 minutes to provide a pellet. This pellet was suspended in Krebs-Ringer-phosphate buffer (pH 7.4; 122 mM NaCl, 4.82 mM KCl, 0.972 mM CaCl2, 1.21 mM MgSO4, 12.7 mM Na2 HPO4, 2.97 mM NaH2 PO4, 0.162 mM EDTA sodium, 10 mM glucose, 1.14 mM ascorbic acid) saturated with a mixed gas (95% O and 5% CO2). To 900 μl of this suspention was added a solution of the test drug (10 μl) in DMSO and the mixture was incubated at 37° C. for 5 minutes. Then, 100 μl of ^3 H-5-HT (final concentration 10 nM) was added and the mixture was further incubated at 37° C. for 5 minutes. This reaction mixture was filtered under suction using a GF/B filter and the filter was washed with 4 ml of the above-mentioned buffer. The radioactivity on the filter was measured by the liquid scintillation method.
The amount of the drug which caused a 50% decrease in 5-HT uptake is shown as 50% inhibitory activity (IC50) in Table 42.

[1] = tested on: 45Ca2+ uptake (veratrine-stimulated, rat cerebral cortex crude synaptosome fraction); assay: 45Ca2+ uptake inhibition experiment; type: biochemical; settings: 30 μM veratrine, 37° C., 10 minutes, read-out: 45Ca2+ uptake inhibitory activity (IC50 μM)
Experimental: The rat cerebral cortex was homogenized in 10 volumes of ice-cooled 0.32M sucrose solution to prepare a crude synaptosome fraction (100×G, 10 min., 12000×G, 20 min.). […] To 900 μl of the homogenate was added a DMSO solution of the test drug (10 μl). The mixture was incubated at 37° C. for 10 minutes, followed by addition of 100 μl of a veratrine solution (containing 0.18 uci ^45 Ca^2+) at a final veratrine concentration of 30 μM. The mixture was incubated at 37° C. for 10 minutes, quenched with 4 ml of ice-cooled EGTA solution (120 mM sodium chloride, 5 mM potassium chloride, 5 mM EGTA, pH=7.5) and suction-filtered using a GF/B filter. The filter was washed twice with 4 ml each of a washing solution (132 mM sodium chloride, 5 mM potassium chloride, 1.3 mM magnesium chloride, 1.2 mM calcium, chloride, 20 mM Tris base, pH 7.5) and the radioactivity of […] was measured by the liquid scintillation method.
The ^45 Ca^2+ uptake inhibition rate was calculated by means of the following equation. [formula] A: The ^45 Ca^2+ uptake after 10 minutes' stimulation with 30 μM veratrine in the presence of the test drug
B: The ^45 Ca^2+ uptake in the absence of veratrine and in the presence of the test drug
C: The ^45 Ca^2+ uptake after 10 minutes' stimulation with 30 μM veratrine in the absence of the test drug
D: The ^45 Ca^2+ uptake in the absence of the test drug and in the absence of veratrine

Compound	IC50 (serotonine (5-HT) uptake) [µM]	IC50 [1] [µM]
c1ccc(N2CCN(CCC3(c4ccccc4)COCc4ccccc43)CC2)cc1 (stereo not drawn) [Example I-6, 4-[2-(4-Phenylpiperazin-1-yl)ethyl]-4-phenylisochroman dihydrochloride]	1	0.32
c1ccc(C2(CCCN3CCCCCC3)COCc3ccccc32)cc1 (stereo not drawn) [Example I-15, 4-[3-(1-Hexamethyleneimino)propyl]-4-phenylisochroman hydrochloride]	–	1.25
c1ccc(CNCCCC2(c3ccccc3)COCc3ccccc32)cc1 (stereo not drawn) [Example I-18, 4-[3-(Benzylamino)propyl]-4-phenylisochroman hydrochloride]	0.8	1.32
Fc1ccccc1CNCCCC1(c2ccccc2)COCc2ccccc21 (stereo not drawn) [Example I-19, 4-[3-(o-Fluorobenzylamino)propyl]-4-phenylisochroman hydrochloride]	–	1.05
Clc1ccccc1CNCCCC1(c2ccccc2)COCc2ccccc21 (stereo not drawn) [Example I-20, 4-[3-(o-Chlorobenzylamino)propyl]-4-phenylisochroman hydrochloride]	–	0.94
c1ccc(C2(CCCNCc3ccccn3)COCc3ccccc32)cc1 (stereo not drawn) [Example I-23, 4-[3-(2-Picolylamino)propyl]-4-phenylisochroman dihydrochloride]	–	0.5
CN(CCCC1(c2ccccc2)CN=Cc2ccccc21)Cc1ccccc1 (stereo not drawn) [II-7, 4-[3-(N-Benzyl-N-methyl)aminopropyl]-3,4-dihydro-4-phenylisoquinoline dihydrochloride]	0.88	0.46
C1=NCC(CCCN2CCN(c3ccccc3)CC2)(c2ccccc2)c2ccccc21 (stereo not drawn) [II-8, 4-Phenyl-4-[3-(4-phenylpiperazin-1-yl)propyl]isoquinoline]	0.41	1.84
Clc1ccc(C2(CCCN3CCN(c4ccccc4)CC3)CN=Cc3ccccc32)cc1 (stereo not drawn) [II-13, 4-(p-Chlorophenyl)-3,4-dihydro-4-[3-(4-phenylpiperazino)propyl]isoquinolinetrihydrochloride]	0.14	1.29
CN(CCCC1(c2ccccc2)CNCc2ccccc21)Cc1ccccc1 (stereo not drawn) [III-7, 4-[3-(N-Benzyl-N-methyl)aminopropyl]-1,2,3,4-tetrahydro-4-phenylisoquinoline dihydrochloride]	0.2	1.77
c1ccc(N2CCN(CCCC3(c4ccccc4)CNCc4ccccc43)CC2)cc1 (stereo not drawn) [III-8, 1,2,3,4-Tetrahydro-4-phenyl-4-[3-(4-phenylpiperazin-1-yl)propyl]isoquinoline trihydrochloride]	0.16	1.63
Fc1ccc(N2CCN(CCCC3(c4ccccc4)CNCc4ccccc43)CC2)cc1 (stereo not drawn) [III-9, 4-{3-[4-(p-fluorophenyl)piperazin-1-yl]propyl}-1,2,3,4-tetrahydro-4-phenylisoquinoline dihydrochloride]	0.17	1.44
CN1Cc2ccccc2C(CCCN2CCN(c3ccccc3)CC2)(c2ccccc2)C1 (stereo not drawn) [IV-7, 1,2,3,4-Tetrahydro-2-methyl-4-phenyl-4-[3-(4-phenylpiperazin-1-yl)propyl]isoquinoline trihydrochloride]	0.18	1.71
CN1Cc2ccccc2C(CCCN2CCC(c3ccccc3)CC2)(c2ccc(Cl)cc2)C1 (stereo not drawn) [IV-13, 4-(p-Chlorophenyl)-2-methyl-4-[3-(4-phenylpiperidino)propyl]-1,2,3,4-tetrahydroisoquinoline trihydrochloride]	0.13	0.32
